# Experiments:
# [1] = Cytotoxicity against human PBMC; type: cell-based
# [2] = molecular target: C-C chemokine receptor type 5 (Homo sapiens, UniProt P51681); test: Displacement of […] from CCR5 expressed in HEK293F cells; type: cell-based
# [3] = system: Human immunodeficiency virus 1; test: Antiviral activity against Human immunodeficiency virus 1 BAL infected in human PBMC assessed as inhibition of viral replication by p24 antigen specific ELISA; type: functional, organism-based
# [4] = Cmax in rat; type: ADME, organism-based; details: in vivo
# [5] = AUC (0 to infinity) in rat; type: ADME, organism-based; set-up: time infinity; details: plasma
# [6] = Volume of distribution at steady state in rat at 10 umol/kg, iv; type: ADME, organism-based; details: in vivo, read-out: Vdss
# [7] = Volume of distribution at steady state in dog at 5 umol/kg, iv; type: ADME, organism-based, Canis lupus familiaris; details: in vivo, read-out: Vdss
# [8] = AUC (0 to infinity) in dog; type: ADME, organism-based, Canis lupus familiaris; set-up: time infinity; details: plasma
# [9] = Oral bioavailability in dog at 12.5 umol/kg; type: ADME, organism-based, Canis lupus familiaris; details: in vivo
# [10] = Half life in dog at 5 umol/kg, iv; type: ADME, organism-based, Canis lupus familiaris; details: in vivo
# [11] = Clearance in dog at 5 umol/kg, iv; type: ADME, organism-based, Canis lupus familiaris; details: in vivo
# [12] = Half life in rat at 10 umol/kg, iv; type: ADME, organism-based; details: in vivo
# [13] = Oral bioavailability in rat at 100 umol/kg; type: ADME, organism-based; details: in vivo
# [14] = Clearance in rat at 10 umol/kg, iv; type: ADME, organism-based; details: in vivo
# [15] = Cmax in dog; type: ADME, organism-based, Canis lupus familiaris; details: in vivo
# Chain of C-C chemokine receptor type 5 (P51681 whole entry): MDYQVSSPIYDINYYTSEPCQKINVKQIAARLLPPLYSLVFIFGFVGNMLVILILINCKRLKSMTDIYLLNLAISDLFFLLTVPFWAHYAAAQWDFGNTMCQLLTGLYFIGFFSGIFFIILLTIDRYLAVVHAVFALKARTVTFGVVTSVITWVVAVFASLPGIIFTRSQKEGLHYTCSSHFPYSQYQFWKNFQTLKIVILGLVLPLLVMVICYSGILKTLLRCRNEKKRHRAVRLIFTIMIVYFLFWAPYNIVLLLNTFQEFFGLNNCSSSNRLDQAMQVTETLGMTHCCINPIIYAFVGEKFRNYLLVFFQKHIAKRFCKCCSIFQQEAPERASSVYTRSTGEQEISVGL
SMILES,CC50 [1] [µM],IC50 [2] [µM],IC50 [3] [µM],also measured
CCO/N=C(/c1ccc(Br)cc1)C1CCN(C(C)(C)CCNC(=O)c2c(Cl)cncc2Cl)CC1,34,1.76,> 6.81,
CCO/N=C(/c1ccc(Br)cc1)C1CCN(CCCNC(=O)c2c(C)cc[n+]([O-])c2C)CC1,7.5,0.18,> 1.5,
CCO/N=C(/c1ccc(Br)cc1)C1CCN(CCNC(=O)c2c(C)cc[n+]([O-])c2C)CC1,196,,> 39.2,
CCO/N=C(/c1ccc(Br)cc1)C1CCN(C(C)CNC(=O)c2c(C)cc[n+]([O-])c2C)CC1 (configuration not stated),182,17,> 36.4,
CCO/N=C(/c1ccc(Br)cc1)C1CCN(C(C)CCNC(=O)c2c(C)cc[n+]([O-])c2C)CC1 (configuration not stated),> 178,0.29,2.54,
CCO/N=C(/c1ccc(Br)cc1)C1CCN(C(CC)CCNC(=O)c2c(C)cc[n+]([O-])c2C)CC1 (configuration not stated),> 178,,> 32.8,
CCO/N=C(/c1ccc(Br)cc1)C1CCN(C(C)CCN(C)C(=O)c2c(C)cc[n+]([O-])c2C)CC1 (configuration not stated),> 183,5.62,> 36.5,
CCO/N=C(/c1ccc(Br)cc1)C1CCN(C(C)CCNC(=O)c2c(Cl)cncc2Cl)CC1 (configuration not stated),33.8,0.13,> 6.7,
CCO/N=C(/c1ccc(Br)cc1)C1CCN(C2(CCNC(=O)c3c(Cl)cncc3Cl)CC2)CC1,33,21.4,> 6.6,
CC(CCNC(=O)c1c(Cl)cncc1Cl)N1CCC(C2=NOCc3cc(Br)ccc32)CC1 (configuration not stated),185,12.3,> 7.4,
CC(CCNC(=O)c1c(Cl)cncc1Cl)N1CCC(C(=O)c2ccc(Br)cc2)CC1 (configuration not stated),189,,32.6,
CC(CCNC(=O)c1c(Cl)cncc1Cl)N1CCC(C(O)c2ccc(Br)cc2)CC1 (configuration not stated),198,3.39,> 39.6,
CC(CCNC(=O)c1c(Cl)cncc1Cl)N1CCC(C(Oc2ccccc2)c2ccc(Br)cc2)CC1 (configuration not stated),31.7,0.13,> 1.3,
CC(CCNC(=O)c1c(Cl)cncc1Cl)N1CCC(N(Cc2ccccc2)c2ccc(Br)cc2)CC1 (configuration not stated),4.28,0.03,0.22,
CC(CCNC(=O)c1c(Cl)cncc1Cl)N1CCC(C2(c3ccc(C(F)(F)F)cc3)Cc3ccccc3O2)CC1 (configuration not stated),33.8,0.04,0.22,
CC(CCNC(=O)c1c(Cl)cncc1Cl)N1CCC(C2(c3ccc(C(F)(F)F)cc3)Oc3ccccc3O2)CC1 (configuration not stated),7.8,0.03,0.01,
CC(CCNC(=O)c1c(Cl)cncc1Cl)N1CCC(C(Oc2ccccc2)c2ccc(C(F)(F)F)cc2)CC1 (mixture of isomers),6.8,0.05,1.27,
CC(CCNC(=O)c1c(Cl)cncc1Cl)N1CCC(C(Oc2ccccc2C#N)c2ccc(C(F)(F)F)cc2)CC1 (mixture of isomers),17,0.1,2.87,
CC(CCNC(=O)c1c(Cl)cncc1Cl)N1CCC(C(Oc2cccc(C#N)c2)c2ccc(C(F)(F)F)cc2)CC1 (mixture of isomers),15.7,0.05,0.48,
CC(CCNC(=O)c1c(Cl)cncc1Cl)N1CCC(C(Oc2ccccc2Cl)c2ccc(C(F)(F)F)cc2)CC1 (mixture of isomers),4.4,0.12,> 1.27,
CC(CCNC(=O)c1c(Cl)cncc1Cl)N1CCC(C(Oc2cccc(Cl)c2)c2ccc(C(F)(F)F)cc2)CC1 (mixture of isomers),8.1,0.06,0.07,
CC(CCNC(=O)c1c(Cl)cncc1Cl)N1CCC(C(Oc2ccccc2C(F)(F)F)c2ccc(C(F)(F)F)cc2)CC1 (mixture of isomers),12.5,,0.1,
CC(CCNC(=O)c1c(Cl)cncc1Cl)N1CCC(C(Oc2cccc(C(F)(F)F)c2)c2ccc(C(F)(F)F)cc2)CC1 (mixture of isomers),7,,0.03,
CC(CCNC(=O)c1c(Cl)cncc1Cl)N1CCC(C(Oc2ccc(C(F)(F)F)cc2)c2ccc(C(F)(F)F)cc2)CC1 (mixture of isomers),3.1,,> 1.23,

SMILES,CC50 [1] [µM],IC50 [2] [µM],IC50 [3] [µM],also measured
CC(CCNC(=O)c1c(Cl)cncc1Cl)N1CCC(C(Oc2cccc(F)c2)c2ccc(C(F)(F)F)cc2)CC1 (mixture of isomers),5.4,0.04,0.23,
COC(=O)c1cccc(OC(c2ccc(C(F)(F)F)cc2)C2CCN(C(C)CCNC(=O)c3c(Cl)cncc3Cl)CC2)c1 (mixture of isomers),15.2,,> 6.26,
CC(CCNC(=O)c1c(Cl)cncc1Cl)N1CCC(C(Oc2ccccn2)c2ccc(Br)cc2)CC1 (mixture of isomers),33.7,0.14,3.76,
CC(CCNC(=O)c1c(Cl)cncc1Cl)N1CCC(C(Oc2cccnc2)c2ccc(Br)cc2)CC1 (mixture of isomers),32.5,0.97,3.3,
CC(CCNC(=O)c1c(Cl)cncc1Cl)N1CCC(C(Oc2ccncc2)c2ccc(Br)cc2)CC1 (mixture of isomers),31.2,,> 0.24,
Cc1cccnc1OC(c1ccc(Br)cc1)C1CCN(C(C)CCNC(=O)c2c(Cl)cncc2Cl)CC1 (mixture of isomers),32.1,0.19,0.34,
Cc1ccnc(OC(c2ccc(Br)cc2)C2CCN(C(C)CCNC(=O)c3c(Cl)cncc3Cl)CC2)c1 (mixture of isomers),32.5,0.14,1.96,
Cc1ccc(OC(c2ccc(Br)cc2)C2CCN(C(C)CCNC(=O)c3c(Cl)cncc3Cl)CC2)nc1 (mixture of isomers),32.2,3.8,> 1.29,
Cc1cccc(OC(c2ccc(Br)cc2)C2CCN(C(C)CCNC(=O)c3c(Cl)cncc3Cl)CC2)n1 (mixture of isomers),6.5,0.22,1.55,
Cc1cccnc1OC(c1ccc(C(F)(F)F)cc1)C1CCN(C(C)CCNC(=O)c2c(Cl)cncc2Cl)CC1 (mixture of isomers),33,0.06,2.95,
Cc1ccnc(OC(c2ccc(C(F)(F)F)cc2)C2CCN(C(C)CCNC(=O)c3c(Cl)cncc3Cl)CC2)c1 (mixture of isomers),33.6,0.05,> 6.72,
Cc1cccc(OC(c2ccc(C(F)(F)F)cc2)C2CCN(C(C)CCNC(=O)c3c(Cl)cncc3Cl)CC2)n1 (mixture of isomers),6.7,0.04,0.17,
CC(CCNC(=O)c1c(Cl)cncc1Cl)N1CCC(C(Oc2ncccc2Cl)c2ccc(C(F)(F)F)cc2)CC1 (mixture of isomers),16.7,0.14,0.08,
CC(CCNC(=O)c1c(Cl)cncc1Cl)N1CCC(C(Oc2cc(Cl)ccn2)c2ccc(C(F)(F)F)cc2)CC1 (mixture of isomers),4.26,0.07,0.43,
CC(CCNC(=O)c1c(Cl)cncc1Cl)N1CCC(C(Oc2cccc(Cl)n2)c2ccc(C(F)(F)F)cc2)CC1 (mixture of isomers),> 32.5,0.02,0.009,Cmax [4]: 200 nM; AUC(0-inf) [5]: 2.4 µM·h; Vd [6]: 15.2 L/kg; Vd [7]: 20.8 L/kg; AUC(0-inf) [8]: 0.5 µM·h; bioavailability [9]: 6%; half-life [10]: 7.7 h; clearance [11]: 31.7 mL/min/kg; half-life [12]: 1.2 h; bioavailability [13]: 20%; clearance [14]: 142 mL/min/kg; Cmax [15]: 100 nM
CC(CCNC(=O)c1c(Cl)cncc1Cl)N1CCC(C(Oc2cccc(Cl)n2)c2ccc(OC(F)(F)F)cc2)CC1 (mixture of isomers),6,0.03,0.002,
CC(CCNC(=O)c1c(Cl)cncc1Cl)N1CCC(C(Oc2cccc(Cl)n2)c2ccc(S(C)(=O)=O)cc2)CC1 (mixture of isomers),> 29.5,0.01,0.004,
CC(CCNC(=O)c1c(Cl)cncc1Cl)N1CCC(C(Oc2ccccn2)c2ccc(C(F)(F)F)cc2)CC1 (mixture of isomers),34.1,0.03,0.13,
COc1cccc(OC(c2ccc(C(F)(F)F)cc2)C2CCN(C(C)CCNC(=O)c3c(Cl)cncc3Cl)CC2)n1 (mixture of isomers),32.7,,> 1.3,
CC(CCNC(=O)c1c(Cl)cncc1Cl)N1CCC(C(Oc2cccc(C(F)(F)F)n2)c2ccc(C(F)(F)F)cc2)CC1 (mixture of isomers),13.5,0.13,0.06,
CC(CCNC(=O)c1c(Cl)cncc1Cl)N1CCC(C(Oc2cccc(C#N)n2)c2ccc(C(F)(F)F)cc2)CC1 (mixture of isomers),15.7,0.04,0.009,
COC(=O)c1cccc(OC(c2ccc(C(F)(F)F)cc2)C2CCN(C(C)CCNC(=O)c3c(Cl)cncc3Cl)CC2)n1 (mixture of isomers),14.6,1.05,0.52,
CC(CCNC(=O)c1c(Cl)cncc1Cl)N1CCC(C(Oc2cccc(C(=O)O)n2)c2ccc(C(F)(F)F)cc2)CC1 (mixture of isomers),28.7,,> 28.7,
CCO/N=C(/c1ccc(Br)cc1)C1CCN(C2(C)CCN(C(=O)c3c(C)cc[n+]([O-])c3C)CC2)CC1 [SCHERING C],> 1.6,0.04,0.16,Cmax [4]: 1600 nM; AUC(0-inf) [5]: 4.3 µM·h; Vd [6]: 7.2 L/kg; half-life [12]: 2.7 h; bioavailability [13]: 48%; clearance [14]: 31.7 mL/min/kg

# Source: ChEMBL document CHEMBL1759996, “Design and synthesis of pyridin-2-yloxymethylpiperidin-1-ylbutyl amide CCR5 antagonists that are potent inhibitors of M-tropic (R5) HIV-1 replication” (Bioorg Med Chem Lett, 2011)
